Measurements as given in patent publication US20220040212A1, “ORAL REHYDRATION COMPOSITION WITH OLIGOSACCHARIDES” (ABBOTT LABORATORIES, priority 2013, published 2022).
Values joined by “and” are separate entries in the source; they are usually repeats but may differ in a detail not shown here. Equal entries are not always repeated.

What was measured:
[1] = Stability of oligosaccharides in oral rehydration solution, before/after retort sterilization and 3 weeks after (HPAEC); assay type: physicochemical; settings: for LNnT / Lactose / % Theoretical LNnT: LNnT sample, pH 3.5; for % Theoretical LNnT: fortification 0.256 g/L
Experimental: A study was conducted to determine the relative stabilities of GOS, FOS, 2′-FL, 6′-SL, and LNnT in an oral rehydration solution. A master batch of product was prepared (shown in Table 1), the pH adjusted to approx. 4.25, and subsequently divided into five sub-batches.
Oligosaccharide ingredients were added to each of the sub-batches in amounts shown Table 2, and the pH of each sub-batch was subsequently adjusted to 3.5 with citric acid. The solutions were filled into 1 L plastic bottles, capped and retorted with a cook temperature of 217° F. for 25 minutes. Duplicate samples were collected immediately prior to sterilization and within 24 h after sterilization. Prior to sample analysis, the unsterile samples were stored at refrigerated temperature (˜40° F.) and the sterilized samples were held ambient temperature.
Samples were analyzed by HPAEC using a Dionex ICS3000 Ion Chromatography System (Thermo Scientific, Inc., Sunnyvale, Calif.) equipped with a pulsed amperometric detector comprised of a AgCl reference electrode, gold working electrode, and CarboPac PA1 guard (4×50 mm) and analytical columns (4×250 mm). Mobile phases were degassed and pressurized with 3 to 5 psi helium, and oligosaccharides eluted from the columns using various gradients detailed in Tables 3-5 at a flow rate of 1.0 mL/min. The column and detector were held at 20±2° C. Oligosaccharide identification and concentration were determined from quadratic fit (not forced through the origin) standard curves. […]
2′-FL fortification was calculated to be 0.2 g/L. Testing samples were reconstituted at 20 mL to 100 ml, with water, and then filtered using a 0.2 μm PES membrane syringe filter.
LNnT fortification was calculated to be 0.256 g/L. Testing samples were reconstituted at 20 mL to 100 ml, with water, and then filtered using a 0.2 μm PES membrane syringe filter.
6′-SL fortification was calculated to be 0.2 g/L. Testing samples were reconstituted at 20 mL to 100 mL with water, and then filtered using a 0.2 μm PES membrane syringe filter.

[2] = Stability of 2′-FL, LNnT and 6′-SL in an ORC over time (0 D to 14 weeks); assay type: physicochemical; settings: for LNnT / Lactose / % Remaining * (LNnT) / % Remaining ** (LNnT): LNnT ORC pH 3.5; for % Remaining * (LNnT): vs target fortification
Experimental: Another study was performed to determine the stability of 2′-FL, LNnT, and 6′-SL in an ORC over time (e.g., 1 week, 3 weeks, 6 weeks, and 14 weeks).
Sample Preparation: A master batch with a pH of 4.25 is sub-divided. The oligosaccharides are added to the respective ORC in an amount of 0.2 g/L for 2′-FL and 6′-SL, LNnT was fortified in an amount of 0.256 g/L. The pH was then adjusted from 4.25 to 3.5 by addition of citric acid. Prior to sterilization, samples are collected to evaluate oligosaccharide levels. The formulas were then delivered into 1 L bottles and subjected to heat sterilization and allowed to cool to room temperature.
The data on day 0 was collected in duplicate for samples prior to sterilization (unsterile) and after sterilization (sterile), thereafter the data was collected only on the sterilized samples. […] The slight fluctuation in lactose and lactulose levels are likely due to method variability.
The data on day 0 was collected in duplicate for samples prior to sterilization (unsterile) and after sterilization (sterile), thereafter the data was collected only on the sterilized samples.
The data on day 0 was collected in duplicate for samples prior to sterilization (unsterile) and after sterilization (sterile), thereafter the data was collected only on the sterilized samples. […] At 14 weeks, the concentration was 2.3% of the target fortification amount.

[3] = 3-week after sterilization, average
[4] = 3-week after sterilization, samples 1, 2
[5] = sterile (after retort 217° F. 25 min), samples 1, 2
[6] = sterile (after retort), average

Compound: CC(=O)N[C@H]1[C@H](O[C@H]2[C@@H](O)[C@@H](CO)O[C@@H](O[C@H]3[C@H](O)[C@@H](O)C(O)O[C@@H]3CO)[C@@H]2O)O[C@H](CO)[C@@H](O[C@@H]2O[C@H](CO)[C@H](O)[C@H](O)[C@H]2O)[C@@H]1O (mixture of isomers) [LNnT, lacto-N-neotetraose]
- Stability in the exemplary formulations (in words) [1]: enhanced stability
- LNnT [1, 3]: 269 mg/L
- Lactose [1, 3]: 28.1 mg/L
- % Theoretical LNnT [1, 3]: 105%
- LNnT [1, 4]: 266.5 mg/L and 271.0 mg/L
- Lactose [1, 4]: 28.03 mg/L and 28.19 mg/L
- % Theoretical LNnT [1, 4]: 104.2% and 106%
- LNnT [1, 5]: 261 mg/L and 261.1 mg/L
- Lactose [1, 5]: 26.34 mg/L and 27.26 mg/L
- LNnT [1, 6]: 261 mg/L
- Lactose [1, 6]: 26.8 mg/L
- % Theoretical LNnT [1, 6]: 102%
- % Theoretical LNnT ([1]; sterile (after retort), samples 1, 2): 102.1%
- LNnT ([1]; unsterile, average): 258 mg/L
- Lactose ([1]; unsterile, average): 25.6 mg/L
- % Theoretical LNnT ([1]; unsterile, average): 101%
- LNnT ([1]; unsterile, samples 1, 2): 257.6 mg/L and 259.4 mg/L
- Lactose ([1]; unsterile, samples 1, 2): 25.78 mg/L and 25.46 mg/L
- % Theoretical LNnT ([1]; unsterile, samples 1, 2): 100.7% and 101.4%
- Further loss 3-weeks after sterilization, relative to sterilized sample (in words) ([1]; oral rehydration solution pH 3.5, 3-weeks after sterilization): no further loss
- Loss of oligosaccharide during sterilization (in words) ([1]; oral rehydration solution pH 3.5, retort 217° F. 25 min): no decrease
- LNnT ([2]; 0 D, sterile, average): 261 mg/L
- Lactose ([2]; 0 D, sterile, average): 26.8 mg/L
- % Remaining * (LNnT) ([2]; 0 D, sterile, average): 102%
- LNnT ([2]; 0 D, sterile, samples 1, 2): 261 mg/L and 261.1 mg/L
- Lactose ([2]; 0 D, sterile, samples 1, 2): 26.34 mg/L and 27.26 mg/L
- % Remaining * (LNnT) ([2]; 0 D, sterile, samples 1, 2): 102.1%
- LNnT ([2]; 0 D, unsterile, average): 258 mg/L
- Lactose ([2]; 0 D, unsterile, average): 25.6 mg/L
- % Remaining * (LNnT) ([2]; 0 D, unsterile, average): 101%
- LNnT ([2]; 0 D, unsterile, samples 1, 2): 257.6 mg/L and 259.4 mg/L
- Lactose ([2]; 0 D, unsterile, samples 1, 2): 25.78 mg/L and 25.46 mg/L
- % Remaining * (LNnT) ([2]; 0 D, unsterile, samples 1, 2): 100.7% and 101.4%
- % Remaining ** (LNnT) ([2]; 3 WK, sterile, average): 105%
- LNnT ([2]; 3 WK, sterile, average): 269 mg/L
- Lactose ([2]; 3 WK, sterile, average): 28.10 mg/L
- % Remaining ** (LNnT) ([2]; 3 WK, sterile, samples 1, 2): 104.2% and 106%
- LNnT ([2]; 3 WK, sterile, samples 1, 2): 266.5 mg/L and 271.0 mg/L
- Lactose ([2]; 3 WK, sterile, samples 1, 2): 28.03 mg/L and 28.19 mg/L
- % Remaining ** (LNnT) ([2]; 6 WK, sterile, average): 104%
- LNnT ([2]; 6 WK, sterile, average): 267 mg/L
- Lactose ([2]; 6 WK, sterile, average): 29.7 mg/L
- % Remaining ** (LNnT) ([2]; 6 WK, sterile, samples 1, 2): 103.9% and 104.9%
- LNnT ([2]; 6 WK, sterile, samples 1, 2): 265.8 mg/L and 268.4 mg/L
- Lactose ([2]; 6 WK, sterile, samples 1, 2): 30.89 mg/L and 28.6 mg/L
- % Remaining ** (LNnT) ([2]; 14 WK, sterile, average): 105%
- LNnT ([2]; 14 WK, sterile, average): 269 mg/L
- Lactose ([2]; 14 WK, sterile, average): 28 mg/L
- % Remaining ** (LNnT) ([2]; 14 WK, sterile, samples 1, 2): 106.6% and 103.4%
- LNnT ([2]; 14 WK, sterile, samples 1, 2): 272.7 mg/L and 264.3 mg/L
- Lactose ([2]; 14 WK, sterile, samples 1, 2): 27.94 mg/L and 28.14 mg/L
- Change of oligosaccharide level over the course of the study (in words) ([2]; ORC pH 3.5, heat sterilized, 0 D to 14 weeks): No substantial loss
